Measured values: ChEMBL document CHEMBL1201862, “PubChem BioAssay data set” (2004)
Activity calls are given as the source filed them.

Key:
[1] = target: T1, DNA repair and recombination protein RAD54-like (Homo sapiens, UniProt Q92698); assay: inhibitors of human RAD54 branch migration, confirmation, biochemical, fluorescence, cherry-picked samples, dose series (AID 651657); type: functional
T1 sequence (Q92698 whole entry): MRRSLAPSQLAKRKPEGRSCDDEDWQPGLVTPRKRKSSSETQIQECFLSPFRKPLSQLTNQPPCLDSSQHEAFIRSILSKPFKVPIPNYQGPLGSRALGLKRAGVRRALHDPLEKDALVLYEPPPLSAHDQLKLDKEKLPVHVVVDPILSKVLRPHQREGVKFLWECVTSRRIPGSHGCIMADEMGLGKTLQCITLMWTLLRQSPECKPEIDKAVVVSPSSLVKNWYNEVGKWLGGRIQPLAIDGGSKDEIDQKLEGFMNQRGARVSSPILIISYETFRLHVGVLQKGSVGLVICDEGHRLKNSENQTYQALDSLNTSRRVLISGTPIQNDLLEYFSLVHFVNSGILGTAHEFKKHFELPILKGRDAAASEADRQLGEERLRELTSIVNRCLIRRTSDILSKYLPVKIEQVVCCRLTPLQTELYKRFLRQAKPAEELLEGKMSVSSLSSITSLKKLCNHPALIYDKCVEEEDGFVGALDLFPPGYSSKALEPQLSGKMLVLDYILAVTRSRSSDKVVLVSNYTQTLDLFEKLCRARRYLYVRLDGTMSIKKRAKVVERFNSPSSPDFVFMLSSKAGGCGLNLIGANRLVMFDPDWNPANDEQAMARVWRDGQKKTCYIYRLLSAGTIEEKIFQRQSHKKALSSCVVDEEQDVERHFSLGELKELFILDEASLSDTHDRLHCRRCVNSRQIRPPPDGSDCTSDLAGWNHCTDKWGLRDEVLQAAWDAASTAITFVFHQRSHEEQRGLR

[2] = inhibitors of intracellular T. cruzi replication, confirmation, NIH3T3 host cells, beta-gal luminescence (AID 2044); type: functional, cell-based;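 note: intracellular parasites grown in NIH/3T3 mouse fibroblasts as host cells; luminescent beta-galactosidase reporter signal from transgenic T. cruzi replicating inside host cells; inhibitors lower the luminescence signal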
[3] = cytotoxicity toward NIH3T3 fibroblasts, dose response, counter-screen, cell-based, ATP luminescence, mouse fibroblasts (AID 2010); type: functional;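 note: cells exposed to compound for about 90 hours before reading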
[4] = target: T2, CAAX prenyl protease 2 (Saccharomyces cerevisiae S288c, UniProt Q03530); type: biochemical
T2 sequence (Q03530 whole entry): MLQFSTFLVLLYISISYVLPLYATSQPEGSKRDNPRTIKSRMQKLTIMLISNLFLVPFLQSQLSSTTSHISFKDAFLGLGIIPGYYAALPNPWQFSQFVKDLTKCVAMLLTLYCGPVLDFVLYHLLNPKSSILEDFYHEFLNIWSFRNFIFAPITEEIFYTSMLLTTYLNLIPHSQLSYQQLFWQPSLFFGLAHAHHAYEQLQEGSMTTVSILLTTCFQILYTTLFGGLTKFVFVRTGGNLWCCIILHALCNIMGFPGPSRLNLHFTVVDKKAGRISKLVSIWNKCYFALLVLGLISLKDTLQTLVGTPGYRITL

[5] = test system: INS1; assay: beta cell apoptosis inhibitors, cytokine rescue, dose response, luminescence, retest (AID 449756); type: functional, cell-based; conditions: Rattus norvegicus;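 note: cell death triggered by IL-1 beta plus TNF-alpha plus IFN-gamma mixture; protective hits raise ATP signal compared with cytokine alone wells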
[6] = target: T3, CAAX prenyl protease 2 (Homo sapiens, UniProt Q9Y256); assay: human Rce1 protease inhibitors, dose response, biochemical, yeast membranes, quenched-peptide fluorescence, cherry-pick (AID 588849)
T3 sequence (Q9Y256 whole entry): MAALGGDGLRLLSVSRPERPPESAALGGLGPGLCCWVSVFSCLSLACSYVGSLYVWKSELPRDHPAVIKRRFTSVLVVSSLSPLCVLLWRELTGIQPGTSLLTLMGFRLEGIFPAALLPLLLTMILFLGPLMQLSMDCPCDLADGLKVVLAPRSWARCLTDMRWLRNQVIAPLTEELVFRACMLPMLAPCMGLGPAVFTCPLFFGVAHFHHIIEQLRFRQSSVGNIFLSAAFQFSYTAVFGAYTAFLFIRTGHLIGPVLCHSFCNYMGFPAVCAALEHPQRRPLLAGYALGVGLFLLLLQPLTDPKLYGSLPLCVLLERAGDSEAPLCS

[7] = Shn3 3'UTR reporter inhibitors, dose response, cell-based, Clone20 osteoblasts, firefly luciferase, cherry-picked (AID 624132); type: functional;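 note: firefly luciferase luminescence from reporter carrying the Shn3 3'UTR in osteoblasts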
[8] = HepG2 cell cytotoxicity, dose response, cytotoxicity control for Shn3 inhibitor project, CellTiter-Glo, cherry-picked (AID 624134); type: functional, cell-based
[9] = control 3'UTR Renilla luciferase suppression, dose response, counter-screen for Shn3 inhibitor project, cell-based, Clone20-Shn3RL, cherry-picked (AID 624133); type: functional
[10] = target: T4, DNA repair protein RAD52 homolog (Homo sapiens, UniProt P43351); type: functional, biochemical
T4 sequence (P43351 whole entry): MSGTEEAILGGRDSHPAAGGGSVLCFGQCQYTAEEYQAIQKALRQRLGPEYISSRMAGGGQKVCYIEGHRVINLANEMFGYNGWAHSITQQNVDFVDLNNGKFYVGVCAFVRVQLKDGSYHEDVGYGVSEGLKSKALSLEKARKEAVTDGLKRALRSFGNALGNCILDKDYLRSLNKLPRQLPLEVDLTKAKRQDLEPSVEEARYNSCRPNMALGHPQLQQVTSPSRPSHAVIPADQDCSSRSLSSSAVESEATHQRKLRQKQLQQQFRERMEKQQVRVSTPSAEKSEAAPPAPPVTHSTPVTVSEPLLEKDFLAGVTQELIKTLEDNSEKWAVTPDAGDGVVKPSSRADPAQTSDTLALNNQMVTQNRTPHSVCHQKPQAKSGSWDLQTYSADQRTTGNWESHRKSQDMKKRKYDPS

[11] = target: Paired box protein Pax-8 (Homo sapiens, UniProt Q06710); assay: inhibitors of PAX8-driven TPO luciferase reporter, dose response, RMG-I cells, cherry-pick (AID 687027); type: functional, cell-based;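 note: luciferase reporter driven by Pax8 target thyroperoxidase promoter measured by SteadyGlo luminescence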
[12] = cells; type: functional, cell-based
[13] = cells; type: functional, cell-based; remark: listed apart in the source
[14] = target: T5, Heat shock factor protein 1 (Mus musculus, UniProt P38532); assay: HSF1 potentiators in luciferase reporter cells, confirmation, cell-based, NIH3T3, luminescence, dose retest (AID 435004); type: functional;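 note: stress induced by proteasome inhibitor MG132 added 30 min after compound; luciferase reporter driven by HSF1 response element in NIH3T3 cells; actives raise luminescence as potentiators of the MG132 stress response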
T5 sequence (P38532 whole entry): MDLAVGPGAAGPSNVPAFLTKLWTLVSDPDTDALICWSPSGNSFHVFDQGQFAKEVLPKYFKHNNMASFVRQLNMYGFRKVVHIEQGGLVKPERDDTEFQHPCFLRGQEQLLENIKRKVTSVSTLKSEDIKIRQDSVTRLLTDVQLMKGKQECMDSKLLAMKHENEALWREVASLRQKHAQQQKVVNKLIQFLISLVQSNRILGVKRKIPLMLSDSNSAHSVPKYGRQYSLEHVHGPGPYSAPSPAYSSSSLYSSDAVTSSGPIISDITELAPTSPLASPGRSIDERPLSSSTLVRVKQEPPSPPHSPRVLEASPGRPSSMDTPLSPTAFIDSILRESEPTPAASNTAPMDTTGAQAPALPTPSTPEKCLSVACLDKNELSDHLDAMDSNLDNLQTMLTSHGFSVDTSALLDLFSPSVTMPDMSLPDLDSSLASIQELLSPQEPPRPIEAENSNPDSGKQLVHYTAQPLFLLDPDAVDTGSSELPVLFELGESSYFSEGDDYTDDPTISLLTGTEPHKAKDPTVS

[15] = target: Nuclear receptor subfamily 5 group A member 2 (Homo sapiens, UniProt O00482); type: functional, cell-based;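 note: HEK293T cells transfected with LRH-1 and a StAR promoter luciferase reporter; potency for inhibitors that lower LRH-1 driven reporter light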
[16] = target: Steroidogenic factor 1 (Homo sapiens, UniProt Q13285); assay: Counterscreen for inverse agonists of the liver receptor homolog-1 (LRH-1; NR5A2): Luminescence-based cell-based high throughput dose response assay to identify inverse agonists of the Steroidogenic Factor 1 Nuclear Receptor (SF1; NR5A1).; type: functional
[17] = StAR promoter reporter inhibition counter-screen, dose response, counter-screen for LRH-1 inverse agonist project, cell-based, luminescence, luciferase reporter (AID 651969); type: functional
[18] = HeLa cell cytotoxicity, dose response, cytotoxicity control for MgcRacGAP inhibitor project (AID 624300); type: functional
[19] = target: T6, Rac GTPase-activating protein 1 (Homo sapiens, UniProt Q9H0H5); assay: MgcRacGAP GTPase-activating activity inhibitors, confirmation, biochemical, ADP Hunter fluorescence, primary and confirmatory (AID 624330); type: functional
T6 sequence (Q9H0H5 whole entry): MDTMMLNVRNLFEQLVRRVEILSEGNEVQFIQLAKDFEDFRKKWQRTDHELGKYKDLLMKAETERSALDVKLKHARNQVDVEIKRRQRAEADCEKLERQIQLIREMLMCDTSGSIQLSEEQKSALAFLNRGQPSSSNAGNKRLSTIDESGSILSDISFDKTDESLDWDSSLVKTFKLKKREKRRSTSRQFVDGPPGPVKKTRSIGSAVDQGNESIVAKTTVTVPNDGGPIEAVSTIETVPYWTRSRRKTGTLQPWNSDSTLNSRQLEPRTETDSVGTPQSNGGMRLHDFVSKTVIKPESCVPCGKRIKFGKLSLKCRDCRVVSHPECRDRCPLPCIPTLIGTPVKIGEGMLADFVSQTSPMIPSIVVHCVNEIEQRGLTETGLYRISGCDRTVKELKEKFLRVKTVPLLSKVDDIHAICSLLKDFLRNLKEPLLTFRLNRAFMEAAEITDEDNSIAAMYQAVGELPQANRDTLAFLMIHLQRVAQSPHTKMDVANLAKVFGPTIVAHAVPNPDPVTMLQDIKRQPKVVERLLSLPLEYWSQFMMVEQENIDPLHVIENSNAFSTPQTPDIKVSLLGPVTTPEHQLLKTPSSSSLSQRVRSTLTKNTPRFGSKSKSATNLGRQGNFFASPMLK

[20] = inhibitors of firefly luciferase expression or activity, dose response, H4 neuroglioma cells, luminescence (AID 1990); type: functional, cell-based
[21] = Luminescence Cell-Based Dose Response HTS to Identify Inhibitors of 5'UTR Stem-Loop Driven Prion Protein mRNA Translation in H4 Neuroglioblastoma Cells. [Related pubchem assays: 1827 (Project Summary), 1813 (Primary HTS)]; type: functional
[22] = inhibitors of SNCA 5'UTR-driven reporter translation, confirmation, H4 neuroglioma cells, luminescence (AID 1988); type: functional, cell-based
[23] = miR-122 activators in hepatoma reporter cells, dose response, cell-based, Huh7 psiCHECK-miR122, Renilla luciferase, cherry-picked (AID 651956); type: functional;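 note: huh7 hepatoma cells stably carrying a psiCHECK-2 miR-122 sensor plasmid; renilla luciferase signal reporting endogenous miR-122 activity after 48 h compound exposure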
[24] = HEK293T cytotoxicity, dose response, cytotoxicity control for miR-122 modulator project, cell-based, inhibitor set, cherry-pick, set 2 (AID 720697); type: functional
[25] = A2780 ovarian cancer cell cytotoxicity, dose response, cytotoxicity control, plate reader, dry powder samples (AID 743046); type: functional, cell-based

Steroidogenic factor 1, sequence (Q13285 whole entry): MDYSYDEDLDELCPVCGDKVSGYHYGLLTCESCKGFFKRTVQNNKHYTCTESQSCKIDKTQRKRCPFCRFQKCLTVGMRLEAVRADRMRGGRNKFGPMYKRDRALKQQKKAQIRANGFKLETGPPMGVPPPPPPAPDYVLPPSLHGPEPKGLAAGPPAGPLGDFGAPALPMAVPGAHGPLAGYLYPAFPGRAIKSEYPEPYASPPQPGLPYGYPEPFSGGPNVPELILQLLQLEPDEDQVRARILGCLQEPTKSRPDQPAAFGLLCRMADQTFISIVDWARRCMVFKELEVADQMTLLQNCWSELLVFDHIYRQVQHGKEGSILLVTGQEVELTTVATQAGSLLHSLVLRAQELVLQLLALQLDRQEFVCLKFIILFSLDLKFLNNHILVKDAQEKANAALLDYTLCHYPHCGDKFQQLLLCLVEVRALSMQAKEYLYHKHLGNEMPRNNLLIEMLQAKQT
Nuclear receptor subfamily 5 group A member 2, sequence (O00482 whole entry): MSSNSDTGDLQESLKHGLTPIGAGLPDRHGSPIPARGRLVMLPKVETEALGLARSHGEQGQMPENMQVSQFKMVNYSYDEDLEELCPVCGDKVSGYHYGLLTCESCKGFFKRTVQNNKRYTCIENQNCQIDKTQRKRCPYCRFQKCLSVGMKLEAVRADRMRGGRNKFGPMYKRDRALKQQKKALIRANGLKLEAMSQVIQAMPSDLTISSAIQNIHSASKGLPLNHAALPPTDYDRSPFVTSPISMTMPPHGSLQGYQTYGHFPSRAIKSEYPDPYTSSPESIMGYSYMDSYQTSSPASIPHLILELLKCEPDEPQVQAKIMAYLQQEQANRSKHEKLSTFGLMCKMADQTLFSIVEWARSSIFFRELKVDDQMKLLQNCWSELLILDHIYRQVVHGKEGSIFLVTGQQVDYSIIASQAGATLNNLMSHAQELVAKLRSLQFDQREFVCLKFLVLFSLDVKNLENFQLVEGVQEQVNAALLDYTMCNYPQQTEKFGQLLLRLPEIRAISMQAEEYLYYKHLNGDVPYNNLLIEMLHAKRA
Paired box protein Pax-8, sequence (Q06710 whole entry): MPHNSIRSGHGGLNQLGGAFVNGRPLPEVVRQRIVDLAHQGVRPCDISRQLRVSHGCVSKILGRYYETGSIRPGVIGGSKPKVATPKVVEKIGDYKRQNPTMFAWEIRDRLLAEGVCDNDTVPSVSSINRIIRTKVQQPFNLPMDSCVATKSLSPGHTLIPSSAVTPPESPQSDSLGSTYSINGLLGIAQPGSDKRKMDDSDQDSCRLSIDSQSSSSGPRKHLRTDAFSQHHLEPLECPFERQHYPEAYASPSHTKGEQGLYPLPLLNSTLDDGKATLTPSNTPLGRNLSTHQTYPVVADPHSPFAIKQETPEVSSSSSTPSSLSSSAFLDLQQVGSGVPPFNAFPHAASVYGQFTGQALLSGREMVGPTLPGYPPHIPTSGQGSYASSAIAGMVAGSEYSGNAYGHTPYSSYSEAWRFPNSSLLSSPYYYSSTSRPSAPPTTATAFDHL

## CCN(CC)CC(=O)Nc1cc(N(C)C)nc2ccccc12
[1]
  AC50: 26.9 µM (active)

## C[n+]1c2n(c3ccccc31)N=C(c1cc(C(C)(C)C)c(O)c(C(C)(C)C)c1)CS2
[2]
  EC50: 496 nM (active)
[3]
  EC50: > 60 µM (not active)
[4]
  AC50: 9.21 µM (active)
[5]
  AC50: 452 nM (active)
[6]
  AC50: > 100 µM (inactive)
[7]
  AC50: 5.92 µM (active)
[8]
  AC50: 13 µM (active)
[9]
  AC50: 7.16 µM (active)
[10]
  AC50: 13.4 µM (active)
[11]
  AC50: 0.906 µM (active)

## COc1ccc(OCC(O)CN2CCC(CN3C(=O)c4cccc5cccc(c45)C3=O)CC2)cc1 (configuration not stated)
[10]
  AC50: 8.15 µM (active)

## Cc1ccc2c(c1)c1nc3ccccc3nc1n2CCN1CCOCC1
[1]
  AC50: 16.6 µM (active)

## O=C1CCCN2N=C(SCC(=O)Nc3ccc(Br)cc3)SC2=N1
[12]
  EC50: > 350 µM (not active)
[13]
  EC50: > 350 µM (not active)
[14]
  EC50: > 260 µM (inactive)
[15]
  IC50: 71.6 µM (inactive)
[16]
  IC50: 12 µM (inactive)
[17]
  IC50: 35.9 µM (inactive)

## CC(C)N(CCNCC(O)COc1ccc(C(C)(C)c2ccccc2)cc1)C(C)C (configuration not stated)
[18]
  CC50: 91.8 µM (active)
[19]
  IC50: 204 µM (active)

## COc1ccc(C(O)(CC(C)C)C(CN2CCOCC2)c2ccccc2)cc1 (configuration not stated)
[20]
  EC50: 10.6 µM (active)
[21]
  EC50: > 120 µM (not active)
[22]
  EC50: 10.2 µM (active)
[23]
  AC50: 49 µM (active)
[24]
  AC50: 4.58 µM (active)

## CCn1c(=O)n(CC)c2cc(N3CCCC3)c(NC(=O)c3cccc(Cl)c3)cc21
[18]
  CC50: 100 µM (active)

## CCN1CCN(c2nc(Nc3ccc(NC(C)=O)cc3)nc(Nc3ccc(NC(C)=O)cc3)n2)CC1
[10]
  AC50: 6.27 µM (active)

## CCOc1ccc(NC(=O)CSc2nccn(-c3ccc4c(c3)OCCO4)c2=O)cc1
[15]
  IC50: 2.49 µM (active)
[16]
  IC50: 2.46 µM (active)
[17]
  IC50: 35.9 µM (inactive)

## OCCN1CCN(c2ncnc3sc(-c4ccccc4)cc23)CC1
[2]
  EC50: 721 nM (active)
[3]
  EC50: > 60 µM (not active)
[1]
  AC50: 24.8 µM (active)

## Cn1cc(Cl)c(C(=O)OCC(=O)Nc2ccc(S(N)(=O)=O)cc2)n1
[15]
  IC50: 0.45 µM (active)
[16]
  IC50: 1.11 µM (active)
[17]
  IC50: 35.9 µM (inactive)

## C[C@@H]1CN([C@H](C)CO)C(=O)c2cc(-c3cncnc3)cnc2O[C@H]1CN(C)Cc1ccc(Oc2ccccc2)cc1
[23]
  AC50: 25.7 µM (active)

## Cc1noc(C)c1S(=O)(=O)Nc1ccc2c(c1)C(=O)N([C@@H](C)CO)C[C@H](C)[C@H](CN(C)C(=O)Nc1ccc(C(F)(F)F)cc1)OCCCC[C@H](C)O2
[11]
  AC50: 14.2 µM (active)
[25]
  AC50: 4.83 µM (active)

## Cc1cc(-c2ccccc2)nc(N/N=C/c2ccc(O)cc2)n1
[18]
  CC50: 87 µM (active)
[19]
  IC50: 18.2 µM (active)
